The values that follow come from BindingDB's records for doi:10.1074/jbc.M511827200 (Merck Frosst Center For Therapeutic Research, 2006).

What all share (experiment): PTP1B and TCPTP Inhibition Assay
Holding throughout (settings): pH 6.3; 22 °C

The target of assay [1] is Tyrosine-protein phosphatase non-receptor type 2 [V121L] (Homo sapiens, UniProt P17706, V121L).
Assay [2] deals with T1, Tyrosine-protein phosphatase non-receptor type 2 (Homo sapiens, UniProt P17706).
T1 sequence (P17706 whole entry): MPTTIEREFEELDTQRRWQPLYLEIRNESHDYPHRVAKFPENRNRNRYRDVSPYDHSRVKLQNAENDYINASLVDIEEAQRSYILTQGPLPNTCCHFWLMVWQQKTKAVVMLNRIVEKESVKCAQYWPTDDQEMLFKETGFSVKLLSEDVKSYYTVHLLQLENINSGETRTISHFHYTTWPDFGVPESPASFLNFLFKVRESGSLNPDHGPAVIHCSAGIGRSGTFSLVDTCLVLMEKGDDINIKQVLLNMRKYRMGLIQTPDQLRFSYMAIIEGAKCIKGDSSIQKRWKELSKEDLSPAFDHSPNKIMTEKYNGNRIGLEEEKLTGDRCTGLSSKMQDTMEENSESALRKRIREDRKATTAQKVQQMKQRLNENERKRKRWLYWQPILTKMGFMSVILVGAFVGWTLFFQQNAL

The target in assay [3] is Tyrosine-protein phosphatase non-receptor type 1 [L119V] (Homo sapiens, UniProt P18031, L119V).
Assay [4] has as its target T2, Tyrosine-protein phosphatase non-receptor type 1 [1-298] (Homo sapiens, UniProt P18031).
T2 construct: 1-298
T2 sequence (P18031 whole entry): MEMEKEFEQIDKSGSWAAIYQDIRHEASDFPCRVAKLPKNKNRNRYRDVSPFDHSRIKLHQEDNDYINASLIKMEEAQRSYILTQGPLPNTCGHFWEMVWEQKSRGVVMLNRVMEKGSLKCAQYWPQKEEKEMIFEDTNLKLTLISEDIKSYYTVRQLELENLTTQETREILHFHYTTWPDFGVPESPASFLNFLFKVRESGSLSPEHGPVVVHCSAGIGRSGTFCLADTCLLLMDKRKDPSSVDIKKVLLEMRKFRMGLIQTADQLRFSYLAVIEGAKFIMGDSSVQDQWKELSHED

Chain of Tyrosine-protein phosphatase non-receptor type 2 [V121L] (P17706 as listed by the source V121L): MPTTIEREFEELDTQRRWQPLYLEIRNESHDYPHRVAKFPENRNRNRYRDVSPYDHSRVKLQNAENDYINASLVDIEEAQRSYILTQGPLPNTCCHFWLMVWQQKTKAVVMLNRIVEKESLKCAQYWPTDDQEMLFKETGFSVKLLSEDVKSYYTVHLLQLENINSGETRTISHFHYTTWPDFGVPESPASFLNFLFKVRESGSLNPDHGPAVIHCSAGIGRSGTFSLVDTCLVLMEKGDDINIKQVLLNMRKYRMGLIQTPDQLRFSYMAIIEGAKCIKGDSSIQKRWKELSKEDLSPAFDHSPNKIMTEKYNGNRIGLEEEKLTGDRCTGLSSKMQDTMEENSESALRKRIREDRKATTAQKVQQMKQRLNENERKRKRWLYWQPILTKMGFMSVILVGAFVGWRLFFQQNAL
Chain of Tyrosine-protein phosphatase non-receptor type 1 [L119V] (P18031 1-298 L119V): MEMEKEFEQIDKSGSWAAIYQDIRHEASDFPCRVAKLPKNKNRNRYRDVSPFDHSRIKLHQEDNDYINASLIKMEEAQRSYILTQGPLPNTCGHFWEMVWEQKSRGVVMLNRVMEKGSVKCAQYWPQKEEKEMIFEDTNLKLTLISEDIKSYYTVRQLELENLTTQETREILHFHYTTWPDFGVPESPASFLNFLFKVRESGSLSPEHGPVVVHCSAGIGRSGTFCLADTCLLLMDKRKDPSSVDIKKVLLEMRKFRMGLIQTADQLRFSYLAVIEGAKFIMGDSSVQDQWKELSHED

Consider `COC(=O)c1ccc([C@@](C/C=C/c2ccccc2)(Cc2ccc(C(F)(F)P(=O)(O)O)cc2)n2nnc3ccccc32)cc1` [({4-[(4E)-2-(1H-1,2,3-benzotriazol-1-yl)-2-[4-(methoxycarbonyl)phenyl]-5-phenylpent-4-en-1-yl]phenyl}difluoromethyl)phosphonic acid], for which the IC50 in assay [1] came to 24 nM; in assay [2], 87 nM.

With `Cc1noc(-c2ccc(C(C/C=C/c3ccccc3)(Cc3ccc(C(F)(F)P(=O)(O)O)cc3)C(=O)c3ccc(F)cc3)cc2)n1` (stereo not drawn) [[difluoro({4-[3-(4-fluorophenyl)-2-[4-(3-methyl-1,2,4-oxadiazol-5-yl)phenyl]-3-oxo-2-[(2E)-3-phenylprop-2-en-1-yl]propyl]phenyl})methyl]phosphonic acid], the IC50 in assay [3] turned out to be 1900 nM; in assay [1], 138 nM; in assay [2], 1600 nM; in assay [4], 163 nM.

Regarding `O=P(O)(O)C(F)(F)c1ccc(CC(C/C=C/c2ccccc2)(c2ccccc2)n2nnc3ccccc32)cc1` (stereo not drawn) [({4-[(4E)-2-(1H-1,2,3-benzotriazol-1-yl)-2,5-diphenylpent-4-en-1-yl]phenyl}difluoromethyl)phosphonic acid], the IC50 in assay [2] worked out at 95 nM; in assay [4], 109 nM.
